From patent publication US7008905B2, “Method of combating undesired plant growth on cereals” (BASF Aktiengesellschaft, priority 2000, dated 2006)

Assays:
Format in all cases: in vivo
[1] = tested on: Triticum aestivum variety “Kanzler”; assay: Pre-emergence test, selectivity; details: 3 weeks after treatment, rating 0-100 (100=death), Table 4
Procedure: (§1) The pre-emergence tests involve spraying a liquid formulation of the compound onto the soil in which the seeds of the plant species mentioned above has recently been sown.
(§2) The soil used in the tests is a prepared horticultural loam. The formulations used in the tests are prepared from solutions of the test compounds in acetone containing 0.4% by weight of an alkylphenol/ethylene oxide condensate available under the trade mark TRITON X-155.
(§3) These acetone solutions are diluted with water and the resulting formulations applied at dosage levels corresponding to 15 g, 30 g, 60 g, 120 g or 240 g of active material per hectare in a volume equivalent to 900 liters per hectare. In these tests untreated sown soil is used as control. The herbicidal effects of the test compounds are assessed visually three weeks after spraying the soil and are recorded an a 0 to 100 scale. A rating 0 indicates growth as untreated control, a rating 100 indicates death. An increase of 10 unit an the linear scale approximates to a 10% increase in the level of effect. The results of the assessment are set out in Tables 1 to 4.

[2] = tested on: Triticum aestivum variety “Monopol”; assay: Pre-emergence test, selectivity; details: 3 weeks after treatment, rating 0-100 (100=death), Table 4
Procedure: as §1, §2, §3

[3] = tested on: VIOAR; assay: Pre-emergence test, weed control; details: 3 weeks after treatment, rating 0-100 (100=death), Table 3
Procedure: as §1, §2, §3

[4] = tested on: PAPRH; assay: Pre-emergence test, weed control; details: 3 weeks after treatment, rating 0-100 (100=death), Table 3
Procedure: as §1, §2, §3

[5] = tested on: wheat; assay: Pre-emergence test, tolerance in wheat; details: in vivo
Procedure: as §1, §2, §3

[6] = tested on: Lamium purpureum; assay: Pre-emergence test, weed control; details: 3 weeks after treatment, rating 0-100 (100=death), Table 3
Procedure: as §1, §2
(§4) In these tests untreated sown soil is used as control. The herbicidal effects of the test compounds are assessed visually three weeks after spraying the soil and are recorded an a 0 to 100 scale. A rating 0 indicates growth as untreated control, a rating 100 indicates death. An increase of 10 unit an the linear scale approximates to a 10% increase in the level of effect. The results of the assessment are set out in Tables 1 to 4.

[7] = tested on: Matricaria inodora; assay: Pre-emergence test, weed control; details: 3 weeks after treatment, rating 0-100 (100=death), Table 3
Procedure: as §1, §2, §4

[8] = tested on: Alopecurus myosuroides; assay: Pre-emergence test, weed control; details: 3 weeks after treatment, rating 0-100 (100=death), Table 3
Procedure: as §1, §2, §4

[9] = tested on: Setaria viridis; assay: Pre-emergence test, weed control; details: 3 weeks after treatment, rating 0-100 (100=death), Table 3
Procedure: as §1, §2, §4

[10] = tested on: Poa annua; assay: Pre-emergence test, weed control; details: 3 weeks after treatment, rating 0-100 (100=death), Table 3
Procedure: as §1, §2, §4

[11] = tested on: Veronica persica; assay: Pre-emergence test, weed control; details: 3 weeks after treatment, rating 0-100 (100=death), Table 3
Procedure: as §1, §2, §4

[12] = tested on: Stellaria media; assay: Pre-emergence test, weed control; details: 3 weeks after treatment, rating 0-100 (100=death), Table 3
Procedure: as §1, §2, §4

[13] = tested on: Lolium perenne; assay: Pre-emergence test, weed control; details: 3 weeks after treatment, rating 0-100 (100=death), Table 3
Procedure: as §1, §2, §4

[14] = tested on: Apera spica-venti; assay: Pre-emergence test, weed control; details: 3 weeks after treatment, rating 0-100 (100=death), Table 3
Procedure: as §1, §2, §4

[15] = tested on: Galium aparine; assay: Pre-emergence test, weed control; details: 3 weeks after treatment, rating 0-100 (100=death), Table 3
Procedure: as §1, §2, §4

Cc1cc(Oc2ccnc(Cl)c2)nc(-c2ccc(C(F)(F)F)cc2)n1 [REF-6]
TRZAWK rating (Selectivity) ([1]; 0.060 kg/ha): 10 | TRZAWK rating (Selectivity) ([1]; 0.120 kg/ha): 12 | TRZAWK rating (Selectivity) ([1]; 0.240 kg/ha): 25 | TRZAWM rating (Selectivity) ([2]; 0.030 kg/ha): 1 | TRZAWM rating (Selectivity) ([2]; 0.060 kg/ha): 8 | TRZAWM rating (Selectivity) ([2]; 0.120 kg/ha): 15 | TRZAWM rating (Selectivity) ([2]; 0.240 kg/ha): 25 | VIOAR weed control rating ([3]; 0.030 kg/ha): 99 | VIOAR weed control rating ([3]; 0.060 kg/ha): 99 | VIOAR weed control rating ([3]; 0.120 kg/ha): 99 | VIOAR weed control rating ([3]; 0.240 kg/ha): 99 | PAPRH weed control rating ([4]; 0.030 kg/ha): 100 | PAPRH weed control rating ([4]; 0.060 kg/ha): 100 | PAPRH weed control rating ([4]; 0.120 kg/ha): 100 | PAPRH weed control rating ([4]; 0.240 kg/ha): 100 | maximum tolerated dose in wheat / dose at which sufficiently selective in wheat [5]: 120 g/ha | LAMPU weed control rating ([6]; 0.030 kg/ha): 85 | LAMPU weed control rating ([6]; 0.060 kg/ha): 100 | LAMPU weed control rating ([6]; 0.120 kg/ha): 100 | LAMPU weed control rating ([6]; 0.240 kg/ha): 100 | MATIN weed control rating ([7]; 0.030 kg/ha): 99 | MATIN weed control rating ([7]; 0.060 kg/ha): 100 | MATIN weed control rating ([7]; 0.120 kg/ha): 100 | MATIN weed control rating ([7]; 0.240 kg/ha): 100 | ALOMY weed control rating ([8]; 0.030 kg/ha): 30 | ALOMY weed control rating ([8]; 0.060 kg/ha): 60 | ALOMY weed control rating ([8]; 0.120 kg/ha): 97 | ALOMY weed control rating ([8]; 0.240 kg/ha): 99 | SETVI weed control rating ([9]; 0.030 kg/ha): 100 | SETVI weed control rating ([9]; 0.060 kg/ha): 100 | SETVI weed control rating ([9]; 0.120 kg/ha): 100 | SETVI weed control rating ([9]; 0.240 kg/ha): 100 | POAAN weed control rating ([10]; 0.030 kg/ha): 100 | POAAN weed control rating ([10]; 0.060 kg/ha): 100 | POAAN weed control rating ([10]; 0.120 kg/ha): 100 | POAAN weed control rating ([10]; 0.240 kg/ha): 100 | VERPE weed control rating ([11]; 0.030 kg/ha): 96 | VERPE weed control rating ([11]; 0.060 kg/ha): 100 | VERPE weed control rating ([11]; 0.120 kg/ha): 100 | VERPE weed control rating ([11]; 0.240 kg/ha): 100 | STEME weed control rating ([12]; 0.030 kg/ha): 97 | STEME weed control rating ([12]; 0.060 kg/ha): 100 | STEME weed control rating ([12]; 0.120 kg/ha): 100 | STEME weed control rating ([12]; 0.240 kg/ha): 100 | LOLPE weed control rating ([13]; 0.030 kg/ha): 95 | LOLPE weed control rating ([13]; 0.060 kg/ha): 100 | LOLPE weed control rating ([13]; 0.120 kg/ha): 100 | LOLPE weed control rating ([13]; 0.240 kg/ha): 100 | APESV weed control rating ([14]; 0.030 kg/ha): 100 | APESV weed control rating ([14]; 0.060 kg/ha): 100 | APESV weed control rating ([14]; 0.120 kg/ha): 100 | APESV weed control rating ([14]; 0.240 kg/ha): 100 | GALAP weed control rating ([15]; 0.120 kg/ha): 65 | GALAP weed control rating ([15]; 0.240 kg/ha): 97

Cc1nc(-c2ccc(C(F)(F)F)cc2)nc(Oc2ccnc(Cl)c2)c1C [REF-5]
TRZAWK rating (Selectivity) ([1]; 0.120 kg/ha): 1 | TRZAWK rating (Selectivity) ([1]; 0.240 kg/ha): 8 | TRZAWM rating (Selectivity) ([2]; 0.120 kg/ha): 1 | TRZAWM rating (Selectivity) ([2]; 0.240 kg/ha): 8 | VIOAR weed control rating ([3]; 0.030 kg/ha): 96 | VIOAR weed control rating ([3]; 0.060 kg/ha): 97 | VIOAR weed control rating ([3]; 0.120 kg/ha): 98 | VIOAR weed control rating ([3]; 0.240 kg/ha): 99 | PAPRH weed control rating ([4]; 0.030 kg/ha): 85 | PAPRH weed control rating ([4]; 0.060 kg/ha): 95 | PAPRH weed control rating ([4]; 0.120 kg/ha): 100 | PAPRH weed control rating ([4]; 0.240 kg/ha): 100 | maximum tolerated dose in wheat / dose at which sufficiently selective in wheat [5]: 240 g/ha | LAMPU weed control rating ([6]; 0.030 kg/ha): 0 | LAMPU weed control rating ([6]; 0.060 kg/ha): 20 | LAMPU weed control rating ([6]; 0.120 kg/ha): 55 | LAMPU weed control rating ([6]; 0.240 kg/ha): 100 | MATIN weed control rating ([7]; 0.030 kg/ha): 85 | MATIN weed control rating ([7]; 0.060 kg/ha): 100 | MATIN weed control rating ([7]; 0.120 kg/ha): 100 | MATIN weed control rating ([7]; 0.240 kg/ha): 100 | ALOMY weed control rating ([8]; 0.030 kg/ha): 5 | ALOMY weed control rating ([8]; 0.060 kg/ha): 15 | ALOMY weed control rating ([8]; 0.120 kg/ha): 30 | ALOMY weed control rating ([8]; 0.240 kg/ha): 35 | SETVI weed control rating ([9]; 0.030 kg/ha): 20 | SETVI weed control rating ([9]; 0.060 kg/ha): 50 | SETVI weed control rating ([9]; 0.120 kg/ha): 95 | SETVI weed control rating ([9]; 0.240 kg/ha): 100 | POAAN weed control rating ([10]; 0.030 kg/ha): 92 | POAAN weed control rating ([10]; 0.060 kg/ha): 100 | POAAN weed control rating ([10]; 0.120 kg/ha): 100 | POAAN weed control rating ([10]; 0.240 kg/ha): 100 | VERPE weed control rating ([11]; 0.030 kg/ha): 55 | VERPE weed control rating ([11]; 0.060 kg/ha): 93 | VERPE weed control rating ([11]; 0.120 kg/ha): 95 | VERPE weed control rating ([11]; 0.240 kg/ha): 100 | STEME weed control rating ([12]; 0.030 kg/ha): 10 | STEME weed control rating ([12]; 0.060 kg/ha): 25 | STEME weed control rating ([12]; 0.120 kg/ha): 35 | STEME weed control rating ([12]; 0.240 kg/ha): 70 | LOLPE weed control rating ([13]; 0.030 kg/ha): 40 | LOLPE weed control rating ([13]; 0.060 kg/ha): 90 | LOLPE weed control rating ([13]; 0.120 kg/ha): 98 | LOLPE weed control rating ([13]; 0.240 kg/ha): 99 | APESV weed control rating ([14]; 0.030 kg/ha): 100 | APESV weed control rating ([14]; 0.060 kg/ha): 100 | APESV weed control rating ([14]; 0.120 kg/ha): 100 | APESV weed control rating ([14]; 0.240 kg/ha): 100 | GALAP weed control rating ([15]; 0.030 kg/ha): 2 | GALAP weed control rating ([15]; 0.060 kg/ha): 5 | GALAP weed control rating ([15]; 0.120 kg/ha): 50
